# Article PMC9629815, “MK256 is a novel CDK8 inhibitor with potent antitumor activity in AML through downregulation of the STAT pathway” (Oncotarget, 2022)
# Tests used:
# [1] = tested on: MCL-1 mRNA in KG-1 cells; assay: Real-time RT-PCR of MCL-1 mRNA; format: cell-based
# Description: (§1) Total RNA from the various cell lines was isolated using the RNeasy extraction method (Qiagen, Valencia, CA, USA). First-strand cDNA was synthesized from total RNA by iScript cDNA synthesis (Bio-Rad, Hercules, CA, USA) according to the manufacturer’s instructions. Taqman RT–PCR analysis was performed on cDNA in a 384-well plate, using a Prism 7900HT Real-Time PCR System (Applied Biosystems, Foster City, CA, USA). Primers and Taqman probes were purchased from Applied Biosystems. The expression of target genes MCL1 (Hs03043899_m1, Thermo fisher) and CCL2 (Hs00234140_m1, Thermo fisher) in each sample was assayed in triplicate and normalized to human GUSB for mRNA expression analysis. An unpaired t test was used to calculate statistical significance.
# [2] = tested on: MCL-1 mRNA in MOLM-14 cells; assay: Real-time RT-PCR of MCL-1 mRNA; format: cell-based
# Description: as §1
# [3] = tested on: CD34+/CD38- AML TEX cells; assay: Flow cytometry of differentiation/maturation markers; format: cell-based, human
# Description: […] novel human leukemic cell line (TEX) cells were plated on 100 mm culture dishes at 5 × 10^5 per well, starved with medium containing IMDM supplemented with 1.5%FCS, 2 ng/ml SCF, and 0.2 ng/ml IL-3 (Amgen, Thousand Oaks, CA, USA) overnight. […] Media with tested drugs was replaced on the third day. Following the 6-day treatments, cultures were washed once in Sort buffer (PBS + 2% FBS + 2 mM EDTA), and resuspended to a final concentration of 50 million cells/mL into a 96-well V-shaped plate. Cells were subsequently incubated with Zombie Aqua Fixable Viability Dye (Thermo), washed with Sort buffer, and incubated with Human FcX (BioLegend) to prevent non-specific antibody binding. Following FcX incubation, cells were washed with Sort buffer and incubated with cell surface antibody mix diluted in the BV stain buffer (BD Biosciences) following manufacturer instructions for 30 mins on ice in the dark. Cells were then washed with 100 mL Sort buffer and permeabilized in fresh Fix/Perm solution (Foxp3 Transcription Factor Staining Buffer from eBioscience) following the manufacturer’s instructions. Cell were subsequently incubated in intracellular stain mix in Perm Buffer (1 mL 10× Perm Buffer (eBiosceince) + 8.8 mL dH2O + 2% FCS) for 30 mins on ice in dark. Isotype controls were stained with mouse IgG conjugated to FITC, PE, PerCP-Cy5.5, PE-Cy7, APC, and Alexa Fluor™ 700. Antibodies used to stain cells were FITC-conjugated anti-CD93, PE-conjugated anti-CD96, PerCP-Cy5.5-conjugated anti-CD38, PE-Cy7-conjugated anti CD-34, APC-conjugated anti-CD117, and Alexa Fluor™ 700-conjugated LIVE/DEAD (Invitrogen). Stained samples were resuspended in Perm Buffer and run on a FACSAriaII Flow Cytometer (BD Biosciences). Data were analyzed in FACSDiva (BD Biosciences) and FlowJo (Treestar). To determine the absolute numbers of cells in samples analyzed by FACS, AccuCount beads (Spherotech) were added to stained samples prior to each FACS run per manufacturer’s instructions, and absolute cell counts were calculated based on the known number of beads added. In order to cellularly differentiate apoptosis in AML cells, MOLM14, as a result of synergetic treatments of MK256 combined with ABT199, we used Dead Cell Apoptosis Kits with Annexin V (Invitrogen). MOLM14 cells were plated on a 96-well V-shaped plate at 5x10^5 per well, starved with medium containing 99% RPMI 1640, 1% FBS, and 1X Antibiotic-Antimycotic (Invitrogen). MK256 were added to final concentrations of 13.7 nM, 41.2 nM, 123.5 nM, 370.4 nM, […] on each column, while ABT199 was at final concentrations of 0.2 nM, 0.5 nM, 4.1 nM, 12.3 nM, 37.0 nM on each row. Following 72-hr retreatment, cultures were washed once in Sort buffer (PBS + 2% FBS + 2 mM EDTA) and resuspended to a final concentration of 10^4 cells/well into a 96-well V-shaped plate. Cells were subsequently incubated with Alex Fluor™ 488 annexin V and PI for Flow Cytometry following manufacturer’s instructions.
structure (smiles),measurement,setting,value
Nc1nccc2c(Br)cc3cc(C(=O)O)ccc3c12 [MK256],mRNA level decreased to,[1]; 300 nM,25%
same,mRNA level decreased to,[1]; 1 uM,30%
same,MCL-1 mRNA level,[2]; 300 nM,barely changed
same,MCL-1 mRNA level downregulated by,[2]; 1 uM,~ 30%
same,differentiation of TEX cells,[3]; 50 nM,slightly induced the differentiation
same,decrease of CD93 relative to control,"[3]; 50 nM, day 6",6.5%
same,increase of CD117 population relative to control,"[3]; 50 nM, day 6",16.5%
same,reduction in CD34 compared to control cells,"[3]; 50 nM, day 6",13%
same,differentiation of TEX cells,[3]; 500 nM,much more effective
same,decrease of CD93 relative to control,"[3]; 500 nM, day 6",approximately 30%
same,increase of CD117 population relative to control,"[3]; 500 nM, day 6",8.6%
same,reduction in CD34 compared to control cells,"[3]; 500 nM, day 6",28%
same,expression of CD96 with or without treatment,[3]; day 6,no difference
same,reduction of CD38 negativity,[3]; treated vs control (60% CD38-),approximately 2 fold
